Laboratory results from US11896582B2, “Use and composition for treating myasthenia gravis and other myasthenic syndromes” (priority 2017, dated 2024).
Several values for one entry are separate records, joined by “and”; a condition that tells them apart may be missing. Identical values can stand only once.

Tested on: human subjects
Assay: Phase I single-blind study: single increasing oral doses of pyridostigmine bromide with or without ondansetron, gastro-intestinal tolerability
Type: in vivo
Conditions: healthy volunteers, one value per subject; for FID-1 Dose Limiting Adverse Event: pyridostigmine alone, oral
Description: A Phase I study was conducted in human subjects receiving a single oral dose of pyridostigmine bromide with or without a single oral dose of ondansetron hydrochloride dihydrate (“ondansetron”), as a representative 5HT3-antagonist. The study was a single center, single-blind study.
Following enrollment in the study, participants received single increasing oral doses of pyridostigmine, given once daily in the morning. The starting dose of pyridostigmine was 30 mg and the dose was increased daily by 30 mg increments. Once a subject had reached his/her first intolerable dose (“FID-1”), upward dose escalation was discontinued. FID was defined as: • (a) One (1) episode of vomiting, or • (b) Two (2) episodes of retching, or • (c) One (1) episode of severe nausea (Grade 3; defined as nausea interfering with activities of daily living or inadequate oral caloric or fluid intake; tube feeding, total parenteral nutrition or hospitalization indicated) lasting more than 1 hour, or • (d) Three (3) consecutive episodes at every 4-hour ratings of moderate nausea (Grade 2; defined as subjectively symptomatic, but not interfering with activities of daily living), or • (e) One (1) episode of moderate diarrhea (Grade 2; defined as 4-6 stools more than at baseline).
When a subject reached FID-1 on pyridostigmine alone, the subject was washed out for 2 to 7 days, and then received single daily doses of pyridostigmine starting at 30 mg and titrated upward by 30 mg increments, together with oral ondansetron hydrochloride dihydrate (10 mg, equivalent to 8 mg ondansetron base) until subjects again reached an intolerable dose (FID-2).
On each study day, subjects were followed up for up to 8 hours following drug administration for AEs, vital signs, ECGs. In addition, a laboratory panel was taken at screening and at the end of the study.

SMILES: CN(C)C(=O)Oc1ccc[n+](C)c1 [Pyridostigmine, Pyridostigmine bromide]
- FID-1 (Pyridostigmine alone) (first intolerable dose, single oral daily doses from 30 mg, raised by 30 mg increments): 60 mg (2×) and 90 mg
- MTD-1 (Pyridostigmine alone) (maximum tolerated single oral dose): 30 mg and 60 mg
- FID-1 Dose Limiting Adverse Event: Vomiting
- FID-1 Dose Limiting Adverse Event (listed as pyridostigmine): vomiting
